Patent US20260042764A1, “COMPOSITIONS AND METHODS FOR INHIBITION OF KRAS” (TheRas, Inc., priority 2022, published 2026)
pIC50: −log10 of the molar value.

How the values were obtained:
[1] = biological target: T1, Avi-KRAS G12V (1-169) GppNHp/RAF1 RBD-3xFLAG (52-151) (Homo sapiens, UniProt P01116, G12V); experiment: Raf1-KRAS G12V-GppNHP disruption HTRF assay (Biological Example 1); type: binding
T1 construct: Avi-KRAS G12V (1-169)
In short: (§1)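 Protein mix, 1 h RT, 700 rpm; reagent mix, 1 h RT, 700 rpm; HTRF read. Buffer Tris pH 7.5/NaCl/MgCl2/BSA/Tween, 10% DMSO. Output % activity, DMSO = 100%.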

[2] = biological target: T2, Avi-KRAS G12R (1-169) GppNHp/RAF1 RBD-3xFLAG (52-151) (Homo sapiens, UniProt P01116, G12R); experiment: Raf1-KRAS G12R-GppNHP disruption HTRF assay (Biological Example 1); type: binding
T2 construct: Avi-KRAS G12R (1-169)
In short: as §1

GP2d cells (KRAS G12D) = experiment: Cell-based pERK HTRF assay in GP2d cell (Biological Example 2); conditions: GP2d (KRAS G12D) cells, pERK HTRF
In short: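 Treatment with test compounds lasted one hour in DMEM containing 10% FBS, with DMSO held at 0.25%. Dilution series: 9 points, half-log spacing, highest 1 μM or 100 nM. Lysates were incubated 4–24 h at room temperature with antibody mix, then HTRF was read at 320 nm excitation.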

[3] = biological target: T3, Avi-KRAS WT (1-169) GppNHp/RAF1 RBD-3xFLAG (52-151) (Homo sapiens, UniProt P01116); experiment: Raf1-KRAS WT-GppNHP disruption HTRF assay (Biological Example 1); type: binding
T3 construct: Avi-KRAS WT (1-169)
In short: as §1

[4] = biological target: T4, Avi-KRAS G12D (1-169) GppNHp/RAF1 RBD-3xFLAG (52-151) (Homo sapiens, UniProt P01116, G12D); experiment: Raf1-KRAS G12D-GppNHP disruption HTRF assay (Biological Example 1); type: binding
T4 construct: Avi-KRAS G12D (1-169)
In short: as §1

SW620 cells (KRAS G12V) = experiment: Cell-based pERK HTRF assay in SW620 cell (Biological Example 4); conditions: pERK HTRF
In short: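 SW620 seeded in RPMI/10% FBS, next day dosed 4 h (top 1 μM, half-log, 9 pts, 0.25% DMSO). Lysed, pERK by d2/Eu cryptate HTRF, 4–24 h RT, 615 nm read.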

[5] = Homo sapiens, SW-620, SW620 (KRAS G12V) cells
[6] = KRAS G12V, GppNHp-loaded, Table 11
[7] = KRAS G12R, GppNHp-loaded, Table 11
[8] = KRAS WT, GppNHp-loaded, Table 11
[9] = KRAS G12D, GppNHp-loaded, Table 11
[10] = KRAS G12V, GppNHp-loaded, class symbols
[11] = KRAS G12R, GppNHp-loaded, class symbols
[12] = KRAS WT, GppNHp-loaded, class symbols
[13] = KRAS G12D, GppNHp-loaded, class symbols
[14] = Homo sapiens, SW-620, SW620 (KRAS G12V) cells, class symbols

T2 sequence (P01116 1-169 isoform P01116-2 G12R): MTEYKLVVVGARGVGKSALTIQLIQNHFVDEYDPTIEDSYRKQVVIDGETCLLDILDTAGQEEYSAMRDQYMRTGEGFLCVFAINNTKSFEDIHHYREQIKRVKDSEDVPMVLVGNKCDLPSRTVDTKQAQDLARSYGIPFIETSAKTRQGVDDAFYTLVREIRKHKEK
T1 sequence (P01116 1-169 isoform P01116-2 G12V): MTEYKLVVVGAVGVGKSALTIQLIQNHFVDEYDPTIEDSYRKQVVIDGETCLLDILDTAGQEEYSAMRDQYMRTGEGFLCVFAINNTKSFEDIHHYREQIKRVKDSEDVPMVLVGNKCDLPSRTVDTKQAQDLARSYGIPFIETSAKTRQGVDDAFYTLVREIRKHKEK
T4 sequence (P01116 1-169 isoform P01116-2 G12D): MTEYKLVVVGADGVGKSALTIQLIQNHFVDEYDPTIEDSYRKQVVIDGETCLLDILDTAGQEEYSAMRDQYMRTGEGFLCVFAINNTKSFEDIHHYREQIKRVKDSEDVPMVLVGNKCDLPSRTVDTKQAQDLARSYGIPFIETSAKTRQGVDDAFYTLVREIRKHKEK
T3 sequence (P01116 1-169 isoform P01116-2): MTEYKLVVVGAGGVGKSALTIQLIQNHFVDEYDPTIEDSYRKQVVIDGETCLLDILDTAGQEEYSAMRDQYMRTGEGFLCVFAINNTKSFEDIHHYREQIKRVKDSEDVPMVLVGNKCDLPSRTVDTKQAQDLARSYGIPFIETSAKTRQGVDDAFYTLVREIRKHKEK

Row | SMILES | pIC50 (GP2d cells (KRAS G12D); GP2d) | pIC50 (SW620 cells (KRAS G12V); [5]) | pIC50 [1, 6] | pIC50 [2, 7] | pIC50 [3, 8] | pIC50 [4, 9] | pIC50 [1, 10] | pIC50 [2, 11] | pIC50 (GP2d cells (KRAS G12D); GP2d, class symbols) | pIC50 [3, 12] | pIC50 [4, 13] | pIC50 (SW620 cells (KRAS G12V); [14]) | further results
1 | CCC(=O)N1CC[C@@H](N(C)c2nc(OC[C@@]34CCCN3C[C@H](F)C4)nc3c(F)c(-c4ccc(F)c5sc(N)c(C#N)c45)c(Cl)cc23)[C@H]1C [Compound 399] | > 7.00 | > 7.00 |  |  |  |  |  |  |  |  |  |  | pIC50 ([1]; KRAS G12V-GppNHp/RAF1 RBD HTRF): 6.00 to 7.00; pIC50 ([2]; KRAS G12R-GppNHp/RAF1 RBD HTRF): 6.00 to 7.00; pIC50 ([3]; KRAS WT-GppNHp/RAF1 RBD HTRF): 6.00 to 7.00; pIC50 ([4]; KRAS G12D-GppNHp/RAF1 RBD HTRF): 6.00 to 7.00
2 | CC(=O)N1CC[C@H](N(C)c2nc(OC[C@@H]3CCCN3C)nc3c(F)c(-c4ccc(F)c5sc(N)c(C#N)c45)c(C(F)(F)F)cc23)[C@@H]1C [Compound 239] | < 6.00 | < 6.00 | < 5.00 | < 5.00 | < 5.00 | < 5.00 |  |  |  |  |  |  | 
3 | CN(C)C(=O)CN(C)c1nc(OC[C@@]23CCCN2C[C@H](F)C3)nc2c(F)c(-c3ccc(F)c4sc(N)c(C#N)c34)c(C(F)(F)F)cc12 [Compound 208] | > 7.00 | 6.00 to 7.00 | 6.00 to 7.00 | 5.00 to 6.00 | 6.00 to 7.00 | 6.00 to 7.00 |  |  |  |  |  |  | 
4 | CC(=O)N1CC[C@H](N(C)c2nc(OC[C@@]34CCCN3C[C@H](F)C4)nc3c(F)c(-c4ccc(F)c5sc(N)c(C#N)c45)c(C(F)(F)F)cc23)[C@@H]1C (single isomer, unassigned) [Compound 195] |  |  | 5.00 to 6.00 | 5.00 to 6.00 | 5.00 to 6.00 | 5.00 to 6.00 |  |  |  |  |  |  | pIC50 (GP2d cells (KRAS G12D)): 6.00 to 7.00; pIC50 (SW620 cells (KRAS G12V); SW620 (KRAS G12V) cells): 6.00 to 7.00
5 | CCc1c(C(=O)N(C)C)nn2c1CN(c1nc(OCC34CCCN3CC(F)C4)nc3c(F)c(-c4ccc(F)c5sc(N)c(C#N)c45)c(C(F)(F)F)cc13)CC2 (stereo not drawn) [Compound 773] |  |  |  |  |  |  | 6.00 to 7.00 | 6.00 to 7.00 | > 7.00 | 6.00 to 7.00 | 6.00 to 7.00 | > 7.00 | 
6 | CCN(c1nc(OC[C@@]23CCCN2C[C@H](F)C3)nc2c(F)c(-c3ccc(F)c4sc(N)c(C#N)c34)c(C(F)(F)F)cc12)[C@H]1C[C@@H](COC)N(C(=O)OC)C1 (atropisomer, axis not shown) [Compound 714] |  |  |  |  |  |  | 6.00 to 7.00 | 6.00 to 7.00 | > 7.00 | 6.00 to 7.00 | 6.00 to 7.00 | > 7.00 | 
7 | C[C@@H]1[C@H](N(C)c2nc(OC[C@@]34CCCN3C[C@H](F)C4)nc3c(F)c(-c4ccc(F)c5sc(N)c(C#N)c45)c(Cl)cc23)CCN1C(=O)C(C)(F)F [Compound 420] | 6.00 to 7.00 | 6.00 to 7.00 |  |  |  |  |  |  |  |  |  |  | pIC50 ([1]; KRAS G12V-GppNHp/RAF1 RBD HTRF): 5.00 to 6.00; pIC50 ([2]; KRAS G12R-GppNHp/RAF1 RBD HTRF): 5.00 to 6.00; pIC50 ([3]; KRAS WT-GppNHp/RAF1 RBD HTRF): 5.00 to 6.00; pIC50 ([4]; KRAS G12D-GppNHp/RAF1 RBD HTRF): 5.00 to 6.00
8 | N#Cc1c(N)sc2c(F)ccc(-c3c(C(F)(F)F)cc4c(N5CC6CC(C5)O6)nc(OC[C@@]56CCCN5C[C@H](F)C6)nc4c3F)c12 (single isomer, unassigned) [Compound 276] |  |  | < 5.00 | 5.00 to 6.00 | 5.00 to 6.00 | 5.00 to 6.00 |  |  |  |  |  |  | pIC50 (GP2d cells (KRAS G12D)): < 6.00; pIC50 (SW620 cells (KRAS G12V); SW620 (KRAS G12V) cells): 6.00 to 7.00
9 | CC(=O)N1CCN(c2nc(OC[C@@]34CCCN3C[C@H](F)C4)nc3c(F)c(-c4ccc(F)c5sc(N)c(C#N)c45)c(C(F)(F)F)cc23)[C@@H](C)C1 [Compound 230] | > 7.00 | > 7.00 | 5.00 to 6.00 | 5.00 to 6.00 | 6.00 to 7.00 | 6.00 to 7.00 |  |  |  |  |  |  | 
10 | CCN(c1nc(OC[C@@]23CCCN2C[C@H](F)C3)nc2c(F)c(-c3ccc(F)c4sc(N)c(C#N)c34)c(C(F)(F)F)cc12)[C@H]1CCN(C(=O)N2CC3C(C2)C3(F)F)C1 (stereo partly drawn) [Compound 657] |  |  |  |  |  |  | > 7.00 | > 7.00 | > 7.00 | > 7.00 | > 7.00 | > 7.00 | 
11 | CCN(c1nc(OCC23CCCN2CC(F)C3)nc2c(F)c(-c3ccc(F)c4sc(N)c(C#N)c34)c(C(F)(F)F)cc12)C1CCN(C(=O)c2ccncc2)C1 (stereo not drawn) [Compound 709] |  |  |  |  |  |  | > 7.00 | > 7.00 | > 7.00 | > 7.00 | > 7.00 | > 7.00 | 
